Literature values, collected in patent publication EP0706556B1, “CLEANING AND DI[…]” (Henkel-Ecolab GmbH & Co. OHG, priority 1993, dated 1995).

C=O [Formaldehyd]
Konzentration, bei der Augenreizungen auftreten können (exposed persons, certain individuals): ≥ 0,4 ppm
Konzentration, die Lungenödeme verursacht (inhalation, humans): 50 ppm
Konzentration, die Tränenfluß verursacht (inhalation, humans): ≥ 0,1 ppm
